Experimental data reported in patent publication US8192962B2, “Processes for detecting toxic substances” (Daikin Industries, Ltd., priority 2001, dated 2012).

Tested on: Unknown protein yeast genes
Test: DNA chip mRNA expression in yeast, unknown protein yeast genes (Table 1)
Assay type: cell-based, Saccharomyces cerevisiae S288C
In short: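 Chemical exposure: 2 h, log-phase S. cerevisiae S288C, YPD, 25° C., dose set to inhibit growth without death. Profiling: mRNA labeled by reverse transcription with Cy3- or Cy5-dUTP, hybridized to whole-genome array. Output: fluorescence ratio against untreated culture.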

## [Cl][Hg][Cl] [(3), HgCl2]
Yeast gene YKL195W, incubated two hours with chemical substance
  The level of expressed mRNA in the presence of chemical substance/The level of expressed mRNA in the absence of chemical substance: 0.4
Yeast gene YKR091W, incubated two hours with chemical substance
  The level of expressed mRNA in the presence of chemical substance/The level of expressed mRNA in the absence of chemical substance: 0.9
Yeast gene YLR054C, incubated two hours with chemical substance
  The level of expressed mRNA in the presence of chemical substance/The level of expressed mRNA in the absence of chemical substance: 0.4
Yeast gene YLR149C, incubated two hours with chemical substance
  The level of expressed mRNA in the presence of chemical substance/The level of expressed mRNA in the absence of chemical substance: 3.4
Yeast gene YLR152C, incubated two hours with chemical substance
  The level of expressed mRNA in the presence of chemical substance/The level of expressed mRNA in the absence of chemical substance: 1.1
Yeast gene YLR194C, incubated two hours with chemical substance
  The level of expressed mRNA in the presence of chemical substance/The level of expressed mRNA in the absence of chemical substance: 1.3
Yeast gene YLR324W, incubated two hours with chemical substance
  The level of expressed mRNA in the presence of chemical substance/The level of expressed mRNA in the absence of chemical substance: 0.9
Yeast gene YLR350W, incubated two hours with chemical substance
  The level of expressed mRNA in the presence of chemical substance/The level of expressed mRNA in the absence of chemical substance: 3.2
Yeast gene YLR387C, incubated two hours with chemical substance
  The level of expressed mRNA in the presence of chemical substance/The level of expressed mRNA in the absence of chemical substance: 0.8
Yeast gene YLR460C
  The level of expressed mRNA in the presence of chemical substance/The level of expressed mRNA in the absence of chemical substance: 2.0
Yeast gene YML117W, incubated two hours with chemical substance
  The level of expressed mRNA in the presence of chemical substance/The level of expressed mRNA in the absence of chemical substance: 0.9
Yeast gene YMR009W, incubated two hours with chemical substance
  The level of expressed mRNA in the presence of chemical substance/The level of expressed mRNA in the absence of chemical substance: 0.5
Yeast gene YMR067C, incubated two hours with chemical substance
  The level of expressed mRNA in the presence of chemical substance/The level of expressed mRNA in the absence of chemical substance: 1.1
Yeast gene YMR090W
  The level of expressed mRNA in the presence of chemical substance/The level of expressed mRNA in the absence of chemical substance: 2.3
Yeast gene YMR095C, incubated two hours with chemical substance
  The level of expressed mRNA in the presence of chemical substance/The level of expressed mRNA in the absence of chemical substance: 1.6
Yeast gene YMR097C, incubated two hours with chemical substance
  The level of expressed mRNA in the presence of chemical substance/The level of expressed mRNA in the absence of chemical substance: 0.7
Yeast gene YMR102C, incubated two hours with chemical substance
  The level of expressed mRNA in the presence of chemical substance/The level of expressed mRNA in the absence of chemical substance: 1.1
Yeast gene YMR107W, incubated two hours with chemical substance
  The level of expressed mRNA in the presence of chemical substance/The level of expressed mRNA in the absence of chemical substance: 1.7
Yeast gene YMR180C, incubated two hours with chemical substance
  The level of expressed mRNA in the presence of chemical substance/The level of expressed mRNA in the absence of chemical substance: 1.0
Yeast gene YMR184W, incubated two hours with chemical substance
  The level of expressed mRNA in the presence of chemical substance/The level of expressed mRNA in the absence of chemical substance: 1.0
Yeast gene YMR191W, incubated two hours with chemical substance
  The level of expressed mRNA in the presence of chemical substance/The level of expressed mRNA in the absence of chemical substance: 1.9
Yeast gene YMR295C, incubated two hours with chemical substance
  The level of expressed mRNA in the presence of chemical substance/The level of expressed mRNA in the absence of chemical substance: 1.2
Yeast gene YMR316W, incubated two hours with chemical substance
  The level of expressed mRNA in the presence of chemical substance/The level of expressed mRNA in the absence of chemical substance: 1.1
Yeast gene YNL044W, incubated two hours with chemical substance
  The level of expressed mRNA in the presence of chemical substance/The level of expressed mRNA in the absence of chemical substance: 2.3
Yeast gene YNL074C, incubated two hours with chemical substance
  The level of expressed mRNA in the presence of chemical substance/The level of expressed mRNA in the absence of chemical substance: 1.8
Yeast gene YNL092W, incubated two hours with chemical substance
  The level of expressed mRNA in the presence of chemical substance/The level of expressed mRNA in the absence of chemical substance: 2.4
Yeast gene YNL115C, incubated two hours with chemical substance
  The level of expressed mRNA in the presence of chemical substance/The level of expressed mRNA in the absence of chemical substance: 1.6
Yeast gene YNL156C, incubated two hours with chemical substance
  The level of expressed mRNA in the presence of chemical substance/The level of expressed mRNA in the absence of chemical substance: 0.9
Yeast gene YNL234W, incubated two hours with chemical substance
  The level of expressed mRNA in the presence of chemical substance/The level of expressed mRNA in the absence of chemical substance: 0.6
Yeast gene YNL281W, incubated two hours with chemical substance
  The level of expressed mRNA in the presence of chemical substance/The level of expressed mRNA in the absence of chemical substance: 2.0
Yeast gene YNL305C, incubated two hours with chemical substance
  The level of expressed mRNA in the presence of chemical substance/The level of expressed mRNA in the absence of chemical substance: 2.7
Yeast gene YNR068C, incubated two hours with chemical substance
  The level of expressed mRNA in the presence of chemical substance/The level of expressed mRNA in the absence of chemical substance: 2.3
Yeast gene YOL032W, incubated two hours with chemical substance
  The level of expressed mRNA in the presence of chemical substance/The level of expressed mRNA in the absence of chemical substance: 2.0
Yeast gene YOL036W, incubated two hours with chemical substance
  The level of expressed mRNA in the presence of chemical substance/The level of expressed mRNA in the absence of chemical substance: 1.3
Yeast gene YOL047C, incubated two hours with chemical substance
  The level of expressed mRNA in the presence of chemical substance/The level of expressed mRNA in the absence of chemical substance: 1.1
Yeast gene YOL071W, incubated two hours with chemical substance
  The level of expressed mRNA in the presence of chemical substance/The level of expressed mRNA in the absence of chemical substance: 1.7
Yeast gene YOL082W, incubated two hours with chemical substance
  The level of expressed mRNA in the presence of chemical substance/The level of expressed mRNA in the absence of chemical substance: 1.6
Yeast gene YOL083W, incubated two hours with chemical substance
  The level of expressed mRNA in the presence of chemical substance/The level of expressed mRNA in the absence of chemical substance: 1.2
Yeast gene YOL117W, incubated two hours with chemical substance
  The level of expressed mRNA in the presence of chemical substance/The level of expressed mRNA in the absence of chemical substance: 0.5
Yeast gene YOL131W, incubated two hours with chemical substance
  The level of expressed mRNA in the presence of chemical substance/The level of expressed mRNA in the absence of chemical substance: 0.6
Yeast gene YOL150C
  The level of expressed mRNA in the presence of chemical substance/The level of expressed mRNA in the absence of chemical substance: 9.9
Yeast gene YOL162W, incubated two hours with chemical substance
  The level of expressed mRNA in the presence of chemical substance/The level of expressed mRNA in the absence of chemical substance: 1.7
Yeast gene YOR019W, incubated two hours with chemical substance
  The level of expressed mRNA in the presence of chemical substance/The level of expressed mRNA in the absence of chemical substance: 0.8
Yeast gene YOR197W, incubated two hours with chemical substance
  The level of expressed mRNA in the presence of chemical substance/The level of expressed mRNA in the absence of chemical substance: 1.1
Yeast gene YPL087W, incubated two hours with chemical substance
  The level of expressed mRNA in the presence of chemical substance/The level of expressed mRNA in the absence of chemical substance: 3.0
Yeast gene YPL196W, incubated two hours with chemical substance
  The level of expressed mRNA in the presence of chemical substance/The level of expressed mRNA in the absence of chemical substance: 1.3
Yeast gene YPL206C, incubated two hours with chemical substance
  The level of expressed mRNA in the presence of chemical substance/The level of expressed mRNA in the absence of chemical substance: 1.4
Yeast gene YPL222W, incubated two hours with chemical substance
  The level of expressed mRNA in the presence of chemical substance/The level of expressed mRNA in the absence of chemical substance: 0.8
Yeast gene YPR023C, incubated two hours with chemical substance
  The level of expressed mRNA in the presence of chemical substance/The level of expressed mRNA in the absence of chemical substance: 1.2
Yeast gene YPR151C, incubated two hours with chemical substance
  The level of expressed mRNA in the presence of chemical substance/The level of expressed mRNA in the absence of chemical substance: 1.5
